Laboratory results: patent EP0096931B1, “Radiographic imaging agents” (priority 1982, dated 1983)

Test: Skeletal imaging with a scintillation camera after intravenous injection of the imaging agent
Type: in vivo, human
Details: acid or its monosodium salt replaces AMDP in the Example I kit; compared with the Example I result
Procedure: An imaging agent is prepared using this kit by adding about 5 ml of a pertechnetate-Tc99m physiological saline solution, with an activity of about 0.278 x 10^10 Bq (about 75 mCi), from a commercial technetium source. The vial is agitated until the kit components are dissolved. About 1 ml of the agent is slowly injected, over a period of about 30 seconds, into an adult human subject weighing about 75 kg.

Row | Structure (SMILES) | skeletal images, carrier used instead of AMDP in the kit of Example I
1 | CNC(P(=O)(O)O)P(=O)(O)O [methane-N-methylaminodiphosphonic acid] | substantially similar results
2 | NCCC(O)(P(=O)(O)O)P(=O)(O)O [propane-1-hydroxy-3-amino-1,1-diphosphonic acid] | substantially similar results
3 | CN(C)C(P(=O)(O)O)P(=O)(O)O [methane-N,N-dimethylaminodiphosphonic acid] | substantially similar results
4 | NCC(O)(P(=O)(O)O)P(=O)(O)O [ethane-1-hydroxy-2-amino-1,1-diphosphonic acid] | substantially similar results
5 | NC(O)(P(=O)(O)O)P(=O)(O)O [methaneaminohydroxydiphosphonic acid] | substantially similar results
